The record followed here is article PMC9017349, “Spiropyrimidinetriones: a Class of DNA Gyrase Inhibitors with Activity against Mycobacterium tuberculosis and without Cross-Resistance to Fluoroquinolones” (Antimicrobial Agents and Chemotherapy, 2022).

The subject of this test is M. tuberculosis H37Rv. Put plainly: MIC against M. tuberculosis H37Rv in 7H9 medium with various supplements. The test is classed as cell-based, Mycobacterium tuberculosis. The settings on record: for MIC: Mycobacterium tuberculosis, H37RV; for fold more active than zoliflodacin against M. tuberculosis: H37Rv, across the MIC media.
The mark [1] stands for this setting: read-out: MIC, DPPC/Chol/BSA/TX.

Converted amounts (≈) assume the structure as drawn. Read-outs that look alike come from different tables or passages of the source.

On to `CC1CN2c3c(cc4c(N5C(=O)OCC5CCO)noc4c3F)CC3(C(=O)NC(=O)NC3=O)C2C(C)O1` (stereo not drawn) [Compound 1], for which the MIC runs as follows: (read-out: MIC, ADC/GLU/TW) 3.9 µM (≈ 2.02 µg/mL); (read-out: MIC, DPPC/CAS/TX) 6.2 µM (≈ 3.21 µg/mL); under setting [1], 9.4 µM (≈ 4.86 µg/mL); (read-out: MIC, GLU/BSA/TX) 9.4 µM (≈ 4.86 µg/mL); (read-out: MIC, GLU/CAS/TX) 4.7 µM (≈ 2.43 µg/mL).

With `CC1CN2c3c(cc4c(N5C(=O)OCC5CO)noc4c3F)CC3(C(=O)NC(=O)NC3=O)C2C(C)O1` (stereo not drawn) [Compound 2], the MIC runs as follows: (read-out: MIC, ADC/GLU/TW) 2 µM (≈ 1.01 µg/mL); (read-out: MIC, DPPC/CAS/TX) 6.2 µM (≈ 3.12 µg/mL); under setting [1], 4.7 µM (≈ 2.37 µg/mL); (read-out: MIC, GLU/BSA/TX) 6.2 µM (≈ 3.12 µg/mL); (read-out: MIC, GLU/CAS/TX) 3.1 µM (≈ 1.56 µg/mL).

`CC1CN2c3c(cc4c(N5CC(CO)OC5=O)noc4c3Cl)CC3(C(=O)NC(=O)NC3=O)C2C(C)O1` (stereo not drawn) [Compound 3]: the MIC (read-out: MIC, ADC/GLU/TW) is 2 µM (≈ 1.04 µg/mL); the MIC (read-out: MIC, DPPC/CAS/TX) was 6.2 µM (≈ 3.22 µg/mL); the MIC under setting [1] is 4.7 µM (≈ 2.44 µg/mL); the MIC (read-out: MIC, GLU/BSA/TX) is 4.7 µM (≈ 2.44 µg/mL); the MIC (read-out: MIC, GLU/CAS/TX) stood at 2.3 µM (≈ 1.2 µg/mL).

Take `CC1CN2c3c(cc4c(N5C(=O)OCC5CCCO)noc4c3Cl)CC3(C(=O)NC(=O)NC3=O)C2C(C)O1` (stereo not drawn) [Compound 4]: the MIC by setting is: (read-out: MIC, ADC/GLU/TW) 4.8 µM (≈ 2.63 µg/mL); (read-out: MIC, DPPC/CAS/TX) 12 µM (≈ 6.58 µg/mL); under setting [1], 12 µM (≈ 6.58 µg/mL); (read-out: MIC, GLU/BSA/TX) 12 µM (≈ 6.58 µg/mL); (read-out: MIC, GLU/CAS/TX) 9.4 µM (≈ 5.15 µg/mL).

With `C[C@@H]1CN(c2noc3c(F)c4c(cc23)CC2(C(=O)NC(=O)NC2=O)[C@H]2[C@H](C)O[C@H](C)CN42)C(=O)O1` [Compound 5], the “fold more active than zoliflodacin against M. tuberculosis” value was “about 2 fold”. Where the note is “read-out: MIC, ADC/GLU/TW”, the MIC stood at 2 µM (≈ 0.975 µg/mL). For the same compound, for the setting “read-out: MIC, DPPC/CAS/TX”, the MIC was 12 µM (≈ 5.85 µg/mL). For the same compound, the MIC under setting [1] was 6.2 µM (≈ 3.02 µg/mL). The MIC (read-out: MIC, GLU/BSA/TX) worked out at 9.4 µM (≈ 4.58 µg/mL). Besides, the MIC (read-out: MIC, GLU/CAS/TX) is 4.7 µM (≈ 2.29 µg/mL).

For the compound `CC1CN2c3c(cc4c(N5C(=O)OC6COCC65)noc4c3F)CC3(C(=O)NC(=O)NC3=O)C2C(C)O1` (stereo not drawn) [Compound 6], the MIC is, setting by setting: (read-out: MIC, ADC/GLU/TW) 0.98 µM (≈ 0.505 µg/mL); (read-out: MIC, DPPC/CAS/TX) 4.7 µM (≈ 2.42 µg/mL); under setting [1], 2.3 µM (≈ 1.19 µg/mL); (read-out: MIC, GLU/BSA/TX) 3.1 µM (≈ 1.6 µg/mL); (read-out: MIC, GLU/CAS/TX) 1.6 µM (≈ 0.825 µg/mL).

Consider `CC1CN2c3c(cc4c(N5C(=O)OC(C)C5C)noc4c3F)CC3(C(=O)NC(=O)NC3=O)C2C(C)O1` (stereo not drawn) [Compound 7], for which the MIC stood at 3.9 µM (≈ 1.96 µg/mL) (read-out: MIC, ADC/GLU/TW); 37 µM (≈ 18.6 µg/mL) (read-out: MIC, DPPC/CAS/TX); 19 µM (≈ 9.53 µg/mL) under setting [1]; 25 µM (≈ 12.5 µg/mL) (read-out: MIC, GLU/BSA/TX); 12 µM (≈ 6.02 µg/mL) (read-out: MIC, GLU/CAS/TX).

For the compound `COCC1COC(=O)N1c1noc2c(F)c3c(cc12)CC1(C(=O)NC(=O)NC1=O)C1C(C)OC(C)CN31` (stereo not drawn) [Compound 8], the MIC reads like this: (read-out: MIC, ADC/GLU/TW) 7.8 µM (≈ 4.04 µg/mL); (read-out: MIC, DPPC/CAS/TX) 25 µM (≈ 12.9 µg/mL); under setting [1], 12 µM (≈ 6.21 µg/mL); (read-out: MIC, GLU/BSA/TX) 25 µM (≈ 12.9 µg/mL); (read-out: MIC, GLU/CAS/TX) 19 µM (≈ 9.83 µg/mL).

With `CC1CN2c3c(cc4c(N5C(=O)OCC5c5ncnn5C)noc4c3F)CC3(C(=O)NC(=O)NC3=O)C2C(C)O1` (stereo not drawn) [Compound 9], the MIC was 16 µM (≈ 8.87 µg/mL) (read-out: MIC, ADC/GLU/TW); more than 50 µM (read-out: MIC, DPPC/CAS/TX); more than 50 µM under setting [1]; more than 50 µM (read-out: MIC, GLU/BSA/TX); 37 µM (≈ 20.5 µg/mL) (read-out: MIC, GLU/CAS/TX).

For `CC1CN2c3c(cc4c(N5C(=O)OC6COCCC65)noc4c3F)CC3(C(=O)NC(=O)NC3=O)C2C(C)O1` (stereo not drawn) [Compound 10], the MIC came to 3.9 µM (≈ 2.06 µg/mL) (read-out: MIC, ADC/GLU/TW); 12 µM (≈ 6.35 µg/mL) (read-out: MIC, DPPC/CAS/TX); 12 µM (≈ 6.35 µg/mL) under setting [1]; 12 µM (≈ 6.35 µg/mL) (read-out: MIC, GLU/BSA/TX); 6.2 µM (≈ 3.28 µg/mL) (read-out: MIC, GLU/CAS/TX).

On to `COCC1[C@@H](C)OC(=O)N1c1noc2c(F)c3c(cc12)CC1(C(=O)NC(=O)NC1=O)[C@H]1[C@H](C)O[C@H](C)CN31` (stereo partly drawn) [Compound 11], for which the MIC was 31 µM (≈ 16.5 µg/mL) (read-out: MIC, ADC/GLU/TW); more than 50 µM (read-out: MIC, DPPC/CAS/TX); more than 50 µM under setting [1]; more than 50 µM (read-out: MIC, GLU/BSA/TX); more than 50 µM (read-out: MIC, GLU/CAS/TX).

Take `CC1CN2c3c(cc4c(N5CC(c6ccccn6)OC5=O)noc4c3F)CC3(C(=O)NC(=O)NC3=O)C2C(C)O1` (stereo not drawn) [Compound 12]: the MIC runs as follows: (read-out: MIC, ADC/GLU/TW) more than 50 µM; (read-out: MIC, DPPC/CAS/TX) more than 50 µM; under setting [1], more than 50 µM; (read-out: MIC, GLU/BSA/TX) more than 50 µM; (read-out: MIC, GLU/CAS/TX) more than 50 µM.

Consider `CC1CN2c3c(cc4c(N5C(=O)OC6CCOCC65)noc4c3F)CC3(C(=O)NC(=O)NC3=O)C2C(C)O1` (stereo not drawn) [Compound 13], for which the MIC came out at 1.9 µM (≈ 1.01 µg/mL) (read-out: MIC, ADC/GLU/TW); 12 µM (≈ 6.35 µg/mL) (read-out: MIC, DPPC/CAS/TX); 4.7 µM (≈ 2.49 µg/mL) under setting [1]; 6.2 µM (≈ 3.28 µg/mL) (read-out: MIC, GLU/BSA/TX); 4.7 µM (≈ 2.49 µg/mL) (read-out: MIC, GLU/CAS/TX).

In the case of `C[C@@H]1CN2c3c(cc4c(-n5ncnc5NCCO)noc4c3F)CC3(C(=O)NC(=O)NC3=O)[C@H]2[C@H](C)O1` [Compound 14], the “fold more active than zoliflodacin against M. tuberculosis” value is recorded as 16 fold. For the same compound, under “read-out: MIC, ADC/GLU/TW”, the MIC was 0.24 µM (≈ 0.123 µg/mL). Besides, the MIC (read-out: MIC, DPPC/CAS/TX) is 1.6 µM (≈ 0.823 µg/mL). For the same compound, the MIC under setting [1] amounted to 1.2 µM (≈ 0.617 µg/mL). The MIC (read-out: MIC, GLU/BSA/TX) was found to be 1.2 µM (≈ 0.617 µg/mL). In addition, for the setting “read-out: MIC, GLU/CAS/TX”, the MIC was found to be 0.6 µM (≈ 0.309 µg/mL).
